Data set [1] has as its system kininases. The following applies: anesthetized rat; single pass in the pulmonary circulation.
Data set [2] deals with kininases. The following applies: anesthetized rat; Roblero, Ryan and Stewart 1973; cited from earlier work.
The conditions of data set [3]: Ferreira & Vane 1967; cited from earlier work.
For another data set, the system named is isolated rat uterus. It is filed as cell-based. The following applies: rat uterus. The method, then: (§1) The bradykinin antagonists were assayed on isolated rat uterus in natural or induced estrus and on guinea pig ileum, according to the commonly accepted assay methods for bradykinin and related kinins as described by Trautschold (Handbook of Expt. Pharmacol. Vol. 25, Springer Verlag, pp 53-55, 1970) for inhibition of the myotropic activity of bradykinin. The inhibition potencies, as determined according to the commonly accepted manner described by Schild for antagonists of biologically active compounds (Br. J. Pharmacol. 2:189, 1947), are determined on isolated rat uterus (RUT) and isolated guinea pig ileum (GPI). In the assays, a dose-response curve is determined for the reference substance bradykinin. The dose of bradykinin which produced a half maximal contraction of tissue is the ED50 dose. An amount of bradykinin equivalent to twice the ED50 dose is administered to the tissue 30 seconds after the start of incubation of the tissue with a dose of antagonist. Doses of antagonist are increased in this protocol until pre-incubation with a dose of antagonist reduces the contraction in response to the double ED50 dose of bradykinin to response of a single ED50 dose of bradykinin. The pA2 value represents the negative logarithm of the molar concentration of antagonist necessary to reduce the response of a double ED50 dose of bradykinin to that of an ED50 dose. One unit of pA2 value represents an order of magnitude change in potency. For comparison, the negative log of the dose of BK, the dose which causes half maximal contraction of the tissues, is commonly known as the pD2 value. The pD2 value for bradykinin is 7.9 on the rat uterus and 7.4 on the guinea pig ileum.

Data set [4] concerns isolated guinea pig ileum. Type of data set: cell-based. The following applies: guinea pig ileum. The method, then: as §1
In each case, as shown, the BK-related antagonists inhibited contractions produced by BK-related agonists, but had no effect on the non-kinin myotropic peptide substances. The inhibition potencies are listed as pA2 values as described above.

Non-standard residues stand in square brackets, D forms with d. Residues, ends and D or L forms follow the SMILES beside them. No end group written: not given here. 2Thi = N[C@@H](Cc1cccs1)C(=O)O

`N=C(N)NCCC[C@H](NC(=O)[C@H](Cc1cccs1)NC(=O)[C@@H]1CCCN1C(=O)[C@H](CO)NC(=O)[C@H](Cc1cccs1)NC(=O)CNC(=O)[C@@H]1CCCN1C(=O)[C@@H]1CCCN1C(=O)[C@H](CCCNC(=N)N)NC(=O)[C@H](CCCCN)NC(=O)[C@@H](N)CCCCN)C(=O)O` [Lys--Lys--Thi^5,8 --BK] (H-KKRPPG[2Thi]SP[2Thi]R-OH): in the data set on kininases [1], the “% DESTRUCTION” value was 0%.

For `N=C(N)NCCC[C@H](NC(=O)[C@H](Cc1cccs1)NC(=O)[C@@H]1CCCN1C(=O)[C@H](CO)NC(=O)[C@H](Cc1cccs1)NC(=O)CNC(=O)[C@@H]1CCCN1C(=O)[C@@H]1CCCN1C(=O)[C@@H](N)CCCNC(=N)N)C(=O)O` [Thi^5,8 --BK] (H-RPPG[2Thi]SP[2Thi]R-OH), in the data set with kininases [1], the “% DESTRUCTION” value is 95%.

Consider “RPPGFSPFR [Bradykinin (BK), Arg-Pro-Pro-Gly-Phe-Ser-Pro-Phe-Arg]”, for which the “% DESTRUCTION” value in the data set on kininases [1] was 98%. Further, the “destruction on a single passage through the pulmonary circulation” value in the data set with kininases [2] was 98-99%. Further, the “half life in the systemic circulation” value in data set [3] is “less than 30 seconds”. Moreover, the “pD2 value (negative log of dose causing half maximal contraction)” value with isolated rat uterus stood at 7.9; in data set [4], 7.4.

The values are drawn from patent US4801613A, “Bradykinin antagonist peptides” (Nova Technology Limited Partnership, priority 1987, dated 1989).
